Entries after “also recorded” stand apart in the source; their conditions may differ.
Legend:
[1] = system: DLBCL models harboring mutant CCND3 (PEST-domain mutation); assay: Cell viability by Cell Titer Glo (cellular ATP), 72 hours, cells containing mutant CCND3; type: cell-based, human; details: 10 μM to 1.5 nM
Method: Using the pharmacologic characterization of the COLE cell lines, cell lines containing CCND3 mutations were tested for CDKi sensitivity. DOHH-2, NU-DHL-1, SEM, SU-DHL-4, SU-DHL-6, and SU-DHL-10 cells were purchased from Deutsche Sammlung von Mikroorganismen and Zellkulturen GmbH (DSMZ). DB and Pfeiffer cells were purchased from American Type Culture Collection (ATCC). A4/FUK cells were purchased from Health Science Research Resources Bank (HSRRB). These cells were cultured in RPMI 1640 medium (ATCC) supplemented with either 10% (A4/FUK, DB, DOHH-2, Pfeiffer, and SEM cells) or 20% (NU-DHL-1, SU-DHL-4, SU-DHL-6, and SU-DHL-10) fetal bovine serum (Gibco) and incubated at 37° C./5% CO2. For screening, cells were seeded in 80 μl of medium in 96-well plates (Costar #3904) at 10,000 (DB, DOHH-2, NU-DHL-1, SEM, SU-DHL-4, SU-DHL-6, and SU-DHL-10), 15,000 (A4/FUK) or 20,000 (Pfeiffer) cell densities and incubated overnight prior to compound addition. A4/FUK, DOHH-2, NU-DHL-1, SU-DHL-10, DB, Pfeiffer, SU-DHL-4 and SU-DHL-6 cells are diffuse large B cell lymphoma (DLBCL) cell lines. SEM cells are acute lymphoblastic B cell leukemia cells.
(§1) Compound stock (5×) was freshly prepared in the appropriate culture medium, and manually added to the plates by electronic multichannel pipette. In a minimum of three replicate wells, the number & viability of cells at the time of compound addition, as well as single agent effects after 72 hours, was assessed by quantification of cellular ATP levels via Cell Titer Glo (Promega, Madison, Wis.) according to the manufacturer's protocol. Day 0 subtracted-EC^50s were calculated using standard four-parametric curve fitting (XLFit, model 205).
CDKi(1)-CDKi(3) were synthesized at Novartis Pharma AG, and compound stocks were prepared in DMSO at a final concentration of 10 mM. Working stocks were serially diluted in the appropriate cell culture medium in 3-fold increments to achieve final assay concentrations ranging from 10 μM to 1.5 nM.

[2] = system: DLBCL models harboring wild-type CCND3; assay: Cell viability by Cell Titer Glo (cellular ATP), 72 hours, cells containing wild type CCND3; type: cell-based, human; details: 10 μM to 1.5 nM
Method: Using the pharmacologic characterization of the COLE cell lines, cell lines containing CCND3 mutations were tested for CDKi sensitivity. DOHH-2, NU-DHL-1, SEM, SU-DHL-4, SU-DHL-6, and SU-DHL-10 cells were purchased from Deutsche Sammlung von Mikroorganismen and Zellkulturen GmbH (DSMZ). DB and Pfeiffer cells were purchased from American Type Culture Collection (ATCC). A4/FUK cells were purchased from Health Science Research Resources Bank (HSRRB). These cells were cultured in RPMI 1640 medium (ATCC) supplemented with either 10% (A4/FUK, DB, DOHH-2, Pfeiffer, and SEM cells) or 20% (NU-DHL-1, SU-DHL-4, SU-DHL-6, and SU-DHL-10) fetal bovine serum (Gibco) and incubated at 37° C./5% CO2. […]
as §1, with “205). […]” for “205).”

SMILES: CN(C)C(=O)c1cc2cnc(Nc3ccc(N4CCNCC4)cn3)nc2n1C1CCCC1 [CDKi(1)]
- sensitivity / cell viability of cells containing mutant CCND3 [1]: increased sensitivity

SMILES: CC(=O)c1c(C)c2cnc(Nc3ccc(N4CCNCC4)cn3)nc2n(C2CCCC2)c1=O [CDKi(2), PD0332991, reference compound]
- sensitivity / cell viability of cells containing mutant CCND3 [1]: more sensitive; also recorded: sensitivity

SMILES: CS(=O)(=O)N1CCC(NC(=O)c2[nH]ncc2NC(=O)c2c(Cl)cccc2Cl)CC1 [CDKi(3)]
- sensitivity / cell viability of cells containing wild type CCND3 [2]: more sensitive to the pan-CDK inhibitor than to the specific CDK 4/6 inhibitors; also recorded: insensitivity
- sensitivity / cell viability of cells containing mutant CCND3 [1]: more sensitive to the pan-CDK inhibitor than to the specific CDK 4/6 inhibitors; also recorded: insensitivity
